Results as given in patent publication US20130236529A1, “COMPOSITION AND METHODS TO ENHANCE ANTI-OXIDATION, GUT FLORA AND IMMUNITY IN PETS” (FLAVITPURE, INC., priority 2012, published 2013).

Legend:
[1] = test system: GSTM1; settings: microarray, in the presence of taxifolin; cited from earlier work
[2] = test system: CYP2E1; settings: microarray, in the presence of taxifolin; cited from earlier work
[3] = test system: human lung embryonic fibroblasts (TIG-1); settings: TIG-1 cells; cited from earlier work
[4] = test system: umbilical vein endothelial (HUVE) cells; settings: cited from earlier work
[5] = test system: NQO1; settings: microarray, in the presence of taxifolin; cited from earlier work
[6] = ORAC hydro antioxidant capacity assay
Text: The majority of HAT-based assays apply a competitive reaction scheme, in which antioxidant and substrate compete for thermally generated peroxyl radicals through the decomposition of azo compounds. ORAC is an assay for the […] oxygen radical absorbance capacity. The ORAC hydro tests the capacity dihydroquercetin generated hydrogen atom transfer (HAT) to compete for thermally generated peroxyl radicals and hydroxyl radicals. For the latter it is necessary to use the ORAC assay test. Unlike electron transfer based assays that measure an antioxidant's reducing capacity, and the hat-based assays measure the hydrogen atom donating capacity. The hydrogen atom transfer is a key step in the radical chain reaction. Therefore, the hat-based assays are more relevant to the radical chain-breaking antioxidant capacity. Among all the hat-based assays, ORAC adopted an AUC (area under curve) technique to quantify antioxidant capacity. […] This approach unifies the lag time method and initial rate method, and it is particularly useful for food samples, which often contain multiple ingredients and have complex reaction kinetics. Therefore, the ORAC assay has been broadly applied in academics and the food and supplement industry as the method of choice to quantify antioxidant capacity. […]

[7] = oxidation of 2′-deoxyguanosine, Fenton reaction catalyzed by copper; cited from earlier work
[8] = relative to quercetin; cited from earlier work

O=C1c2c(O)cc(O)cc2O[C@H](c2ccc(O)c(O)c2)[C@H]1O [Dihydroquercetin]
expression of phase II detoxification enzyme GSTM1 [1]: upregulated | expression of phase I detoxification enzyme CYP2E1 [2]: down regulated | 50% lethal concentration [3]: > 300 µmol | 50% lethal concentration [4]: > 200 µmol | expression of phase II detoxification enzyme NQO1 [5]: upregulated | orachydro value ([6]; per 420 mg capsule): ≥ 300 micromole of trolox equivalent per 420 mg capsule | orachydro value ([6]; per gram): ≥ 800 micromole trolox equivalent per gram | pro-oxidant activity [7]: did not present pro-oxidant activity | times less mutagenic than quercetin [8]: 400 times

catechin [reference compound]
pro-oxidant activity [7]: did not present pro-oxidant activity
